For one assay, the system named is HCT116 colon tumor cells. Kind of assay: Growth assay (Cell Titer Glo), HCT116. Type of assay: cell-based, human. The following applies: for HCT116 colon tumor cell growth: in words, Figure 1B; for IC50: Homo sapiens, HCT-116, 72 h. The procedure: All cell lines were expanded upon delivery, and numerous aliquots of low passage cells were preserved in liquid N2. Cells were passaged no longer than 2 months. Tumor cell lines obtained from ATCC were characterized by STR profiling as performed by ATCC. The NCM460 line was characterized by INCELL as described previously (e.g. tumorigenicity testing). No additional re-authentication of the cell lines was performed except for experimental reasons (e.g. confirmation of cell doubling time, morphology, sensitivity to SS, PDE5/10 expression levels, etc). Cells were plated in 96-well microtiter plates at a density of 5,000 cells per well. For drug treatment, cells were treated with compound or vehicle, and incubated at 37°C for 72 hours. […] For siRNA assays, cells were transfected with siRNA under the same condition described above. The effect of treatment on cell growth was measured using the Cell Titer Glo Assay as specified by the manufacturer (Promega). The IC50 values were determined as described previously. All experiments were repeated a minimum of three times to determine the reproducibility of the results. All error bars represent standard error of the mean (SEM). Statistical analysis of differences between samples was performed using the Student’s t-test.
On the technique in general: Cellular ATP, detected with luciferase, serves as a proxy for viable cell number.

Assay [1] has as its system β-catenin signaling in HCT116 colon tumor cells. Briefly: Western blotting of β-catenin, cyclin D1, survivin, HCT116. Format: cell-based, human. The procedure: Western blotting was performed as described previously. Cells were treated with ADT-094 or vehicle for 8 hours before cell lysates were collected.
In assay [2] the test system is β-catenin/TCF transcriptional activity in HCT116 cells. Format: cell-based. To be noted: HCT116, 24 hours of treatment. The procedure:
Cells were seeded at a density of 5 × 10^4 cells per well in 24-well tissue culture plates and incubated overnight at 37°C. Cells were transiently transfected with 0.1 μg TOP-FLASH constructs (Millipore) and 0.1 μg β-galactosidase-expressing vector (Promega). After 24 hours of transfection, cells were treated with ADT-094 or vehicle for 24 hours. At the end of treatment, cells were lysed and both luciferase and β-galactosidase activities were measured using kits from Promega. All luciferase activity was normalized to β-galactosidase activity.

Assay [3] deals with cGMP PDE activity in HCT116 lysates. Briefly: cGMP hydrolysis in lysates from HCT116 colon tumor cells. The following applies: in words, Figure 1C. Type of assay: biochemical, human. As for the experimental part:
(§1) PDE activity was measured using the IMAP fluorescence polarization (FP) PDE assay (Molecular Devices) in which binding of hydrolyzed fluorescent cyclic nucleotide substrate to the IMAP reagent increases FP as described previously.

In assay [4] the test system is NCM460 normal colonocytes. To be noted: as previously reported; cited from earlier work.
A further assay has as its target T1, purified ovine COX-1 (Ovis aries, UniProt P05979).
T1 construct: purchased Cayman
T1 sequence (P05979 25-600): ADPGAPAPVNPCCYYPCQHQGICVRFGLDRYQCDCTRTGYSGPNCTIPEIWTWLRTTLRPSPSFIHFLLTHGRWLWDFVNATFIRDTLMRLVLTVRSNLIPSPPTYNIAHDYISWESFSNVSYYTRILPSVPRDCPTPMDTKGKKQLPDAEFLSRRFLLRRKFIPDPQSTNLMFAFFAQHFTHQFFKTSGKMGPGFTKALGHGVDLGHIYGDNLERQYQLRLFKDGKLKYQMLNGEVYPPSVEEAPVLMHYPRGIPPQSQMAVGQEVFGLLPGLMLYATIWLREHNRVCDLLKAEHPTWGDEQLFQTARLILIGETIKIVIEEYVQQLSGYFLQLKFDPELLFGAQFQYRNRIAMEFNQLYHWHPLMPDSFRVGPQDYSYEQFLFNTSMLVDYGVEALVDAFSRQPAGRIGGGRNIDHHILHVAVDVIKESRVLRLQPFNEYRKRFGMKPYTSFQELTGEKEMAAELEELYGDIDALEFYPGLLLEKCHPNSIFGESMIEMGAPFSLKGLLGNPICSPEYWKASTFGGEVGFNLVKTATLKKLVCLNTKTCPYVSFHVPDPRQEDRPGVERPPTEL
Briefly: COX-1 colorimetric assay. Type of assay: biochemical. As for the experimental part:
COX-1 and COX-2 activities were measured using purified ovine COX-1 and COX-2 with colorimetric assay kits obtained from Cayman as previously reported. The activities of COX-1 and COX-2 were measured after the addition of arachidonic acid and incubation at 25°C for 5 min by absorbance at 590 nm as specified by the manufacturer.
(§2) The IC50 values were determined as described previously. All experiments were repeated a minimum of three times to determine the reproducibility of the results. All error bars represent standard error of the mean (SEM). Statistical analysis of differences between samples was performed using the Student’s t-test. A P value of < 0.05 was considered statistically significant.

In the next assay the target is T2, PDE5 (Homo sapiens, UniProt O76074).
T2 construct: purchased BPS Biosciences
Kind of assay: IMAP fluorescence polarization PDE assay, recombinant PDE5. To be noted: recombinant enzyme. Type of assay: biochemical. The procedure: (§3) Recombinant PDE isozymes were purchased from BPS Biosciences. The PDE10 antibody was purchased from GeneTex, while the PDE5 antibody was purchased from Cell Signaling Technologies. Non-targeting control siRNA and PDE10 specific siRNAs were purchased from Qiagen. RNAiMAX transfection reagent was purchased from Invitrogen. DMSO was used as vehicle for all compounds unless otherwise noted. All other reagents were purchased from Sigma.
as §1, §2
A general note: In fluorescence polarisation assays a small probe gives low polarisation when free and higher when bound to something large.

In a further assay the target is T3, PDE10 (Homo sapiens, UniProt Q9Y233).
T3 construct: purchased BPS Biosciences
Briefly: IMAP fluorescence polarization PDE assay, recombinant PDE10. The following applies: recombinant enzyme. Type of assay: biochemical. The procedure:
as §3, §1, §2

Another assay concerns HT29 colon tumor cells. Briefly: Growth assay (Cell Titer Glo), HT29. To be noted: Homo sapiens, HT-29, 72 h. Format: cell-based. As for the experimental part:
(§4) Human colon tumor cell lines, HCT116, HT29, SW480 and Caco-2 were obtained from the American Type Culture Collection (ATCC) and grown under standard cell culture conditions in RPMI 1640 medium containing 5% serum at 37°C in a humidified atmosphere with 5% CO2. The human colonocyte line, NCM460, that is derived from normal human colon mucosa was obtained from INCELL and grown in INCELL’s enriched M3:10 medium with 10% serum as recommended by supplier. All cell lines were expanded upon delivery, and numerous aliquots of low passage cells were preserved in liquid N2. Cells were passaged no longer than 2 months. Tumor cell lines obtained from ATCC were characterized by STR profiling as performed by ATCC. The NCM460 line was characterized by INCELL as described previously (e.g. tumorigenicity testing). No additional re-authentication of the cell lines was performed except for experimental reasons (e.g. confirmation of cell doubling time, morphology, sensitivity to SS, PDE5/10 expression levels, etc).
(§5) Cells were plated in 96-well microtiter plates at a density of 5,000 cells per well. For drug treatment, cells were treated with compound or vehicle, and incubated at 37°C for 72 hours. All growth assays were performed in 5% serum unless otherwise noted. Deionized water was used as vehicle control for papaverine. For siRNA assays, cells were transfected with siRNA under the same condition described above. The effect of treatment on cell growth was measured using the Cell Titer Glo Assay as specified by the manufacturer (Promega).
as §2

Assay [5] has as its system NCM460 normal colonocytes. Kind of assay: Growth assay (Cell Titer Glo), NCM460 normal colonocytes. Format: cell-based, human. The following applies: Homo sapiens, NCM460, 72 h, read-out: NCM460 growth IC50. The procedure: as §4, §5, §2

Structures are written as SMILES. Read-outs that look alike come from different tables or passages of the source.

The term IC50 denotes the point on the concentration scale where inhibition reaches its midpoint.

T3 sequence (Q9Y233 267-1055): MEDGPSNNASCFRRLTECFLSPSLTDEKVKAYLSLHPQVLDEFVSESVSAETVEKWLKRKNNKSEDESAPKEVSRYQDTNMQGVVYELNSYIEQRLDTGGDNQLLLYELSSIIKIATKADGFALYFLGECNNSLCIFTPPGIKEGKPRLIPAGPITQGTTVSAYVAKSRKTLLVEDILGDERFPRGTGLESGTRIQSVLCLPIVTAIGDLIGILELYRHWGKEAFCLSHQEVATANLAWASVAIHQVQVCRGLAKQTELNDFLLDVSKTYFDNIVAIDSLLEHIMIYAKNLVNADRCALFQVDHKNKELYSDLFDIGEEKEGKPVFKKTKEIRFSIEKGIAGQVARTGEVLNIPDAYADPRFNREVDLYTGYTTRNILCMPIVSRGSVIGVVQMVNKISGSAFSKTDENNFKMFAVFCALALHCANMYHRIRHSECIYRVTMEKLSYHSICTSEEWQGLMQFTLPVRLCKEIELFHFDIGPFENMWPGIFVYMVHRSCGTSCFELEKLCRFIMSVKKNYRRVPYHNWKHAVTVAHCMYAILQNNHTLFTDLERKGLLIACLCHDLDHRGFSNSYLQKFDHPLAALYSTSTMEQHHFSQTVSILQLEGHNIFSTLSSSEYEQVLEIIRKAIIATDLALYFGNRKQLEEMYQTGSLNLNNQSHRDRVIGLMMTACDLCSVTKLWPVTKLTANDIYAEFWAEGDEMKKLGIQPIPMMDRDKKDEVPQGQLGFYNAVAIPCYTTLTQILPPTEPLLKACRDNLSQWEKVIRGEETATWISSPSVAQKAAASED

With `Clc1cccc(Nc2nnc(-c3ccccc3)c3ccccc23)c1` [MY5445, 1-(3-chlorophenylamino)-4-phenylphthalazine], in the assay with HCT116 colon tumor cells, the “HCT116 colon tumor cell growth” value is recorded as “effectively inhibit”. Also, in assay [1], the expression of survivin result is recorded as “reduced” and the β-catenin levels entry was “reduced”. In addition, in assay [2], the β-catenin/TCF transcriptional activity entry was “reduced”. Moreover, the “cGMP hydrolysis in HCT116 lysates” value in [3] is reported as “inhibited cGMP hydrolysis”. The growth of colonocytes entry in assay [4] is recorded as “did not significantly affect”.

For the compound `CSc1ccc(/C=C2/C(C)=C(CC(=O)O)c3cc(F)ccc32)cc1` [SS, Sulindac sulfide, reference compound], the IC50 against purified ovine COX-1 amounted to 1.2 µM; at PDE5, 38 µM; at PDE10 it was 70 µM; in the assay on HCT116 colon tumor cells (read-out: HCT116 growth IC50, 72 hours of treatment) it was 51 µM; in the assay on HCT116 colon tumor cells (read-out: HCT116 growth IC50, Figure 3C, luciferase-based ATP assay, 72 hours), 51.1 µM; with HT29 colon tumor cells (read-out: HT29 growth IC50, 72 hours of treatment) it was 68 µM. Besides, the half-inhibitory concentration (IC50) in the assay with HT29 colon tumor cells (read-out: HT29 growth IC50, Figure 3C, luciferase-based ATP assay, 72 hours) was 63.8 µM; in assay [5], greater than 100 µM.

For the compound `COc1ccc(Cc2nccc3cc(OC)c(OC)cc23)cc1OC` [papaverine], in the assay with HCT116 colon tumor cells, the “HCT116 colon tumor cell growth” value was “effectively inhibit”. In addition, in [1], the expression of survivin entry is reported as “reduced” and the β-catenin levels result was “reduced”. Besides, the β-catenin/TCF transcriptional activity result in assay [2] is on record as “reduced”. Besides, the “cGMP hydrolysis in HCT116 lysates” value in assay [3] is “inhibited cGMP hydrolysis”. Further, in assay [4], the growth of colonocytes result is “did not significantly affect”.
